Assay in all cases: LDH-coupled assay, single effector concentration
Assay type in all cases: biochemical

Assay [1] has as its target T1, cPK3 (Arabidopsis thaliana, UniProt Q9FFP6).
T1 construct: gene MBK5.16; printed locus At5g56350 duplicates cPK2 (apparent misprint); primer begins MSNIDIE, unlike cPK2; full-length cDNA in pET16b, N-terminal His tag (6x/5x), E. coli BLR21, Ni-NTA
T1 sequence (Q9FFP6 1-510): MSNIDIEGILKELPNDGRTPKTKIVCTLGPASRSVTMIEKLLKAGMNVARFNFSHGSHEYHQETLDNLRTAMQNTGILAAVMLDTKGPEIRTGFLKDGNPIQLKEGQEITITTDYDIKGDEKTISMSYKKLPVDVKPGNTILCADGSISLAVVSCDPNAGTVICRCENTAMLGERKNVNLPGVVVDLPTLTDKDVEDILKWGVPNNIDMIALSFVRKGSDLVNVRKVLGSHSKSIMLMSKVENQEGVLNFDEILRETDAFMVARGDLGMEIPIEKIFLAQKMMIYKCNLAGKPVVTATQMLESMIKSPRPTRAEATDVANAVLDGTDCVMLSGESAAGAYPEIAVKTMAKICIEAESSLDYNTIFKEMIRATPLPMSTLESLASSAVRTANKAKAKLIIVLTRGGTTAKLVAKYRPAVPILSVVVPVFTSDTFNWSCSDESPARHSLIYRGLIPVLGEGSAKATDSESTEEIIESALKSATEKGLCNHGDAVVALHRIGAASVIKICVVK
The settings on record: 4000 µM; saturating ADP and PEP; 10 mM MgCl2, pH 7.5, 25 °C; allosteric inhibitor (stated).

Assay [2] has as its target T2, cPK1 (Arabidopsis thaliana, UniProt Q9FNN1).
T2 construct: gene MAH20.13; full-length cDNA in pET16b, N-terminal His tag (6x in Results, 5x in Methods), E. coli BLR21, Ni-NTA; primer begins MSNIDIEG
T2 sequence (Q9FNN1 1-510): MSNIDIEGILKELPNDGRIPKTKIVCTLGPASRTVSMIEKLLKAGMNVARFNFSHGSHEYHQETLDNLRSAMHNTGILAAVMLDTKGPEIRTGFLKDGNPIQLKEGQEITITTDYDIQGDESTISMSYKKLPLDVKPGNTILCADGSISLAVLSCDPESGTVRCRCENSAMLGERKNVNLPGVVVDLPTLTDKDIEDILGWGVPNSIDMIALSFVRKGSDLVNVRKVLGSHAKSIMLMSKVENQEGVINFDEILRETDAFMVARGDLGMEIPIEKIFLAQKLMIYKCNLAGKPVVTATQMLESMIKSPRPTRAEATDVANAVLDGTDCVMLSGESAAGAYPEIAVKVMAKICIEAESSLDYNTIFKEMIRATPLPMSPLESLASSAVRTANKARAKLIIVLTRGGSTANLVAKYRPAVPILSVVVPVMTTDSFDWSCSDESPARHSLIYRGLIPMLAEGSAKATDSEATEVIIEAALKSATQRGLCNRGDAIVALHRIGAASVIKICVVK
The settings on record: 4000 µM; saturating ADP and PEP; 10 mM MgCl2, pH 7.5, 25 °C; allosteric inhibitor (stated).

The target of a further assay is T3, cPK5 (Arabidopsis thaliana, UniProt F4J867).
T3 construct: gene At3g52990; full-length cDNA in pET16b, N-terminal His tag (6x in Results, 5x in Methods), E. coli BLR21, Ni-NTA; primer begins MHSSHL
T3 sequence (F4J867 1-527): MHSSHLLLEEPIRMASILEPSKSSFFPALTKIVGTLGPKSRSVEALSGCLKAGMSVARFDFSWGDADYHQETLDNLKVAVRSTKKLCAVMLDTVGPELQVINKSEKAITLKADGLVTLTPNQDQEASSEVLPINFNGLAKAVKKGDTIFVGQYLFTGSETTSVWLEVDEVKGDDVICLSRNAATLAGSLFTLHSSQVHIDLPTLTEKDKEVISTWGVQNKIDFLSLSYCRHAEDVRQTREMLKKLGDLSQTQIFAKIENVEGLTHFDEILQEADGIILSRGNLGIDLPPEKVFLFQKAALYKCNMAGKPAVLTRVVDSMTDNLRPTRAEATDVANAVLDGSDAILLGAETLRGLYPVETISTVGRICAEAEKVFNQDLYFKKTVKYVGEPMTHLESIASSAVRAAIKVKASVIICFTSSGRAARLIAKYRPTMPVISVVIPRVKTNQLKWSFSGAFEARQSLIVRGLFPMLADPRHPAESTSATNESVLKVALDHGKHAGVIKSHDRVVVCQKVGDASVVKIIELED
The following applies: 4000 µM; saturating ADP and PEP; 10 mM MgCl2, pH 7.5, 25 °C; allosteric inhibitor (stated).

Assay [3] addresses T4, cPK2 (Arabidopsis thaliana, UniProt Q9FM97).
T4 construct: gene MCD7.8; full-length cDNA in pET16b, N-terminal His tag (6x in Results, 5x in Methods), E. coli BLR21, Ni-NTA; primer begins MAMIEQ
T4 sequence (Q9FM97 1-498): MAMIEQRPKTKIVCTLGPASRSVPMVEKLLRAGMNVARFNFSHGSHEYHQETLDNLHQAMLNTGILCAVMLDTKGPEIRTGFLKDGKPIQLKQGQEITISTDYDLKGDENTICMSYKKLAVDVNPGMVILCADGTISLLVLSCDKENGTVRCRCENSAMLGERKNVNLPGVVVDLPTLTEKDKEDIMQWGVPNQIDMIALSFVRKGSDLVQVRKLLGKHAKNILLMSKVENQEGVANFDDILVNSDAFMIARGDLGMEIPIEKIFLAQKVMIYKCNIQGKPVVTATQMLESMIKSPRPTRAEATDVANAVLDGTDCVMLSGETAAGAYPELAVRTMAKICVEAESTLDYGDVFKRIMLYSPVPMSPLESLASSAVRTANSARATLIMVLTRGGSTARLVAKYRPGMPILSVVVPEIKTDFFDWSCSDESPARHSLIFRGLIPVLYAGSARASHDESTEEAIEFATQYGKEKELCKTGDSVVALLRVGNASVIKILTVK
The following applies: 4000 µM; saturating ADP and PEP; 10 mM MgCl2, pH 7.5, 25 °C; allosteric inhibitor (stated).

The target in a further assay is T5, cPK4 (Arabidopsis thaliana, UniProt Q9SJQ0).
T5 construct: gene At2g36580; full-length cDNA in pET16b, N-terminal His tag (6x in Results, 5x in Methods), E. coli BLR21, Ni-NTA; primer begins MHSSHL
T5 sequence (Q9SJQ0 1-527): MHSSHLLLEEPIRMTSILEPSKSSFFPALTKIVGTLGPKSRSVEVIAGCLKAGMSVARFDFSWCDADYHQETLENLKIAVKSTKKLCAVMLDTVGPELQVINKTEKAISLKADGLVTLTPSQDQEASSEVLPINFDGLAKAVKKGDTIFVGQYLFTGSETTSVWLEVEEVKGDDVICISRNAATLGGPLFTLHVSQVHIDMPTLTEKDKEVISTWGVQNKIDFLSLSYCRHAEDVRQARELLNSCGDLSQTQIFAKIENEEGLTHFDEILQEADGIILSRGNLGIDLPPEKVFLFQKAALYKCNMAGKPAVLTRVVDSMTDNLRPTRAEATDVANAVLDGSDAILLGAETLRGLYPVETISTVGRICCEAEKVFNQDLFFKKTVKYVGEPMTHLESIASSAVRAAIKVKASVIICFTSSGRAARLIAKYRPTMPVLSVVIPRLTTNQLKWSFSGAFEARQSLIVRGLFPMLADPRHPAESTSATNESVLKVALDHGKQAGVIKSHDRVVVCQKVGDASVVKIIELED
The following applies: 4000 µM; saturating ADP and PEP; 10 mM MgCl2, pH 7.5, 25 °C; allosteric inhibitor (stated).

Assay [4] deals with T2, cPK1. The settings on record: 1000 µM; saturating ADP and PEP; 10 mM MgCl2, pH 7.5, 25 °C; activator.
The target in assay [5] is T1, cPK3. The settings on record: 2000 µM; saturating ADP and PEP; 10 mM MgCl2, pH 7.5, 25 °C; inhibitor (also reaction product).
Assay [6] has as its target T2, cPK1. The settings on record: 2000 µM; saturating ADP and PEP; 10 mM MgCl2, pH 7.5, 25 °C; inhibitor (also reaction product).
Assay [7] has as its target T4, cPK2. The following applies: 2000 µM; saturating ADP and PEP; 10 mM MgCl2, pH 7.5, 25 °C; inhibitor (also reaction product).
In assay [8] the target is T2, cPK1. The settings on record: 200 µM; saturating ADP and PEP; 10 mM MgCl2, pH 7.5, 25 °C; inhibitor.

The record followed here is publication PMC7154858, “Transcriptional and Biochemical Characterization of Cytosolic Pyruvate Kinases in Arabidopsis thaliana” (Plants, 2020).

SMILES strings stand for the structures.

As to `O=C(O)CC(O)(CC(=O)O)C(=O)O` [citrate], the Citrate at cPK3 [1] was found to be 7%; at cPK1 [2], 17%; on cPK5, 2%; on cPK2 [3] it was 26%; on cPK4, 3%.

In turn, `O=P(O)(O)OC[C@H]1OC(O)(COP(=O)(O)O)[C@@H](O)[C@@H]1O` (stereo partly shown) [F1.6BP] registered an F1.6BP at cPK1 [4] of 122%.

As for `Nc1ncnc2c1ncn2[C@@H]1O[C@H](COP(=O)(O)OP(=O)(O)OP(=O)(O)O)[C@@H](O)[C@H]1O` [ATP], the ATP on cPK3 [5] was 27%; on cPK1 [6] it was 7%; at cPK2 [7] it was 76%.

`N[C@@H](CC(=O)O)C(=O)O` [aspartate] yielded an Aspartate at cPK1 [8] of 69%.
